Test results: patent US20230218557A1, “A FATTY ACID BASED COMPOSITION FOR TREATMENT AND/OR PREVENTION OF ENVELOPED-VIRUS RELATED INFECTIONS” (priority 2020, published 2023)

Columns and labels:
[1] = system: SARS-CoV-2 virus (WA1/2020) strain; format: cell-based; settings: for antiviral activity (in words): incubated with SARS-CoV-2; for % viral reduction: virus pre-incubated 10 minutes with sample (conc./dilution per Table 2A), diluted four times, added to vero cells, 48/72 hours, supernatant plaque assay
[2] = system: viral particles; settings: electron microscopy; cited from earlier work

CC/C=C\C/C=C\C/C=C\CCCCCCCC(=O)O [ALA, α-linolenic acid]
antiviral activity (in words) [1]: showed antiviral activity | % viral reduction [1]: 97.13%

CCCCC/C=C\C/C=C\CCCCCCCC(=O)O [LA, Linoleic acid]
antiviral activity (in words) [1]: showed antiviral activity | % viral reduction [1]: 97.42% | virucidal effect (in words) [2]: lyse and completely disintegrate viral particles

Triton X100 [reference compound]
% viral reduction [1]: 95.23%

CCCCC/C=C\C/C=C\C/C=C\CCCCC(=O)O [GLA, gamma-linolenic acid]
antiviral activity (in words) [1]: showed antiviral activity | % viral reduction [1]: 96.98% | virucidal effect (in words) [2]: lyse and completely disintegrate viral particles
